# Laboratory results from patent US12016858B2, “Methods for the treatment of abnormal involuntary movement disorders” (AUSPEX PHARMACEUTICALS, INC., priority 2015, dated 2024).
# Read-outs that look alike come from different tables or passages of the source.
# Experiments:
# [1] = tested on: subjects with moderate to severe drug-induced tardive dyskinesia (TD); experiment: Open-label, single-arm long-term study in tardive dyskinesia; type: in vivo, human; conditions: by Week 6
# Method: An open-label, single-arm study in which male and female subjects with moderate to severe drug-induced tardive dyskinesia (TD) was conducted to evaluate the safety and tolerability of long-term maintenance therapy with deutetrabenazine, and to evaluate the efficacy of long-term maintenance therapy of deutetrabenazine to reduce the severity of abnormal involuntary movements of TD. Study Design. […] Dose Regimen. Deutetrabenazine tablets were provided in dosage strengths of 6, 9, 12, 15, and 18 mg. During dose adjustment/titration, deutetrabenazine was supplied in weekly blister cards. During long-term treatment, deutetrabenazine will be supplied in 30-count bottles. Study drug were administered as follows. All treatment regimens were administered twice daily (BID) with meals, approximately 10 hours apart during the day. […] If a subject experienced a clinically significant AE attributable to deutetrabenazine, the Investigator determined if a dose reduction or suspension was necessary. […] During titration, the investigator, in consultation with the subject determined when an adequate level of dyskinesia control had been achieved. […] If a subject experienced a clinically significant AE attributable to deutetrabenazine, the investigator determined if a dose reduction or suspension was necessary. […]
# [2] = tested on: cardiac repolarization (QTcF interval); experiment: TQT study, six-period crossover, placebo- and positive-controlled; type: in vivo, healthy volunteers; conditions: for Maximum Placebo-Adjusted Change from Baseline in QTcF: fed
# Method: Study Design. Given the known risk for tetrabenazine to increase the QT interval, a TQT study of deutetrabenazine, which included tetrabenazine as a treatment arm, was conducted in 48 healthy volunteers. This was a single-center, randomized, double-blind, placebo- and positive-controlled six-period crossover study to evaluate the effects of low-dose (12 mg) and high-dose (24 mg) deutetrabenazine on cardiac repolarization, based on placebo-corrected, time-matched changes from baseline in the QTcF interval. Assay sensitivity was established by using moxifloxacin 400 mg as the positive control.
# The key outcome measure was to determine the effect of single doses of deutetrabenazine on the QTc interval.
# In the table above, ΔΔQTcF is defined as the difference between the least squares mean change from baseline for the active drug and placebo. deutetrabenazine was compared with deutetrabenazine placebo (administered under fed conditions) and tetrabenazine was compared with tetrabenazine placebo (administered under fasted conditions). […] The upper limit of the 95% one-sided confidence interval is the upper limit of the 90% 2-sided confidence interval.
# [3] = tested on: subjects with chorea associated with HD
# Method: First-HD was a randomized, double-blind, placebo-controlled, parallel-group study designed to evaluate the efficacy, safety, and tolerability of deutetrabenazine in subjects with chorea associated with HD. This trial was conducted in the United States and Canada, in collaboration with the Huntington Study Group.
# Subjects in First-HD were treated with deutetrabenazine or placebo, starting at 6 mg once per day and titrating weekly to doses of up to 24 mg twice per day (48 mg total maximum daily dose). A total of 90 subjects (45 in each group) were enrolled for evaluation over 13 weeks. Subjects were individually titrated to an optimal dose over up to eight weeks, received maintenance therapy at the optimal dose for four weeks, and were taken off study medication in the final week of the trial.
# The primary efficacy endpoint for the study was the change from baseline to maintenance therapy (average of Week 9 and Week 12 values) in the maximal chorea score of the UHDRS. The total maximal score, or TMC, is a clinician-based, quantitative assessment of chorea in seven body regions: face, mouth/tongue, trunk, and the four extremities, with higher scores representing more severe chorea.
# The total motor score (TMS) of the UHDRS was prespecified as an additional efficacy endpoint in First-HD. The TMS assesses all the motor features of HD, including items addressing characteristic motor abnormalities other than chorea, such as dystonia, gait, parkinsonism, and postural instability.
# The clinical relevance of the change in the TMC score was assessed with four prespecified secondary endpoints that assessed changes from baseline to end of treatment (Week 12). These secondary endpoints were tested in a hierarchical manner: • 1. Treatment success based on patient global impression of change (PGIC); • 2. Treatment success based on clinical global impression of change (CGIC); • 3. Physical Functioning Scale of the SF-36; and • 4. Balance, as assessed by the Berg Balance Test (BBT).
# The PGIC and CGIC are single-item questionnaires that ask the subject and investigator, respectively, to assess a subject's overall HD symptoms at specific visits after initiating therapy. Both assessments use a 7-point Likert Scale, with responses ranging from Very Much Worse (−3) to Very Much Improved (+3) to assess overall response to therapy.
# Adverse events (AE) and their potential association with treatment were also monitored. Categories of AEs of particular focus included those known to be associated with tetrabenazine use: • Psychiatric disorders: insomnia, depression/agitated depression, abnormal dreams, agitation, anxiety, suicidal ideation, compulsions, impulsive behavior, and sleep disorders; • Nervous system disorders: somnolence, dizziness, akathisia/restlessness, cognitive disorders, drooling, dyskinesia, migraine, headache, loss of consciousness, and syncope (fainting); • General disorders: irritability, fatigue, gait disturbance, chest pain, and hangover; and • Gastrointestinal disorders: diarrhea, dry mouth, constipation, nausea, upper abdominal pain, dyspepsia, frequent bowel movements, gastrointestinal pain, vomiting, dysphagia, flatulence, and salivary hypersecretion.
# In addition to AE reporting, rating scales were used to monitor for potential subclinical toxicity due to excessive monoamine depletion. […] These scales applied in First-HD included the Hospital Anxiety and Depression Scale (HADS), the Columbia Suicide Severity Rating Scale (C-SSRS), the Swallowing Disturbance Questionnaire (SDQ), the Unified Parkinson's Disease Rating Scale (dysarthria item) (UPDRS [dysarthria]), the Barnes Akathisia Rating Scale (BARS), and the Epworth Sleepiness Scale (ESS). In addition, the UHDRS, which includes cognitive, behavioral, and functional measures, was performed at key visits.
# [4] = Baseline to Maintenance Therapy, N = 45
# [5] = baseline to maintenance therapy
# [6] = much or very much improved, Week 12, N = 45
smiles,measurement,setting,value
"[2H]C([2H])([2H])Oc1cc2c(cc1OC([2H])([2H])[2H])C1CC(=O)C(CC(C)C)CN1CC2 (stereo not drawn) [deutetrabenazine, (RR, SS)-1,3,4,6,7,11b-hexahydro-9,10-di(methoxy-d3)-3-(2-methylpropyl)-2H-benzo[a]quinolizin-2-one]",subjects much or very much improved according to PGIC and CGIC,[1],over 50%
same,Maximum Placebo-Adjusted Change from Baseline in QTcF,[2]; 12 mg single dose,2.8 ms
same,Maximum Placebo-Adjusted Change from Baseline in QTcF,[2]; 24 mg single dose,4.5 ms
same,time point at which the maximal ΔΔQTcF was observed,[2]; in vivo,8 h
same,"Absolute Change in Total Maximal Chorea Score, Least Squares Mean (SD)","[3]; Baseline to Maintenance Therapy (mean of Week 9 and Week 12), N = 45",−4.4 (3.0)
same,"Percentage Change in Total Maximal Chorea Score, Least Squares Mean (SD)",[3]; [4],−37 (25.7) %
same,"Total Motor Score change, Least Squares Mean (SD)",[3]; [4],−7.4 (6.3)
same,"Absolute Change in Total Maximal Chorea Score, Difference in Means (DTBZ − Placebo and 95% CI)","[3]; Baseline to Maintenance Therapy, listed as DTBZ","−2.5 (−3.7, −1.3)"
same,"Change in BBT Score, Difference in Means (DTBZ-Placebo)",[3]; Baseline to Week 12,1.0
same,"Change in SF-36 Physical Functioning Score, Difference in Means (DTBZ − Placebo) and 95% CI",[3]; Baseline to Week 12,4.3
same,SF-36 physical functioning score compared with placebo-treated subjects,[3]; Baseline to Week 12,greater improvement in physical function
same,"Change in Berg Balance Test Score, Least Squares Mean","[3]; Baseline to Week 12, N = 45",2.2
same,"Change in SF-36 Physical Functioning Score, Least Squares Mean (SD)","[3]; Baseline to Week 12, N = 45",0.74
same,"Change in SF-36 Physical Functioning Score, Least Squares Mean (SD)","[3]; Baseline to Week 12, N = 45, listed as DTBZ",0.74 (9.773)
same,"Change in SF-36 Physical Functioning Score, Difference in Means (DTBZ − Placebo) and 95% CI","[3]; Baseline to Week 12, listed as DTBZ","4.34 (0.41, 8.27)"
same,"CGIC Treatment Success, Difference in Percentages (DTBZ − Placebo) and 95% CI",[3]; End of Therapy,"29 (11.4, 46.4) %"
same,"PGIC Treatment Success, Difference in Percentages (DTBZ − Placebo) and 95% CI",[3]; End of Therapy,"31 (12.4, 49.8) %"
same,Any Nervous System Disorders TEAE,[3]; N = 45,8 (17.8) n (%)
same,Any Psychiatric Disorders TEAE,[3]; N = 45,8 (17.8) n (%)
same,Any Serious TEAEs,[3]; N = 45,1 (2.2) n (%)
same,Any TEAE that led to Withdrawal from the Study,[3]; N = 45,1 (2.2) n (%)
same,Any TEAEs Resulting in Dose Reduction,[3]; N = 45,3 (6.7) n (%)
same,Any TEAEs Resulting in Dose Suspension,[3]; N = 45,1 (2.2) n (%)
same,Any Treatment-Emergent AEs (TEAEs),[3]; N = 45,60.0 n (%)
same,TEAE Abdominal pain upper,[3]; N = 45,1 (2.2) n (%)
same,TEAE Abnormal Dreams,[3]; N = 45,1 (2.2) n (%)
same,TEAE Agitation,[3]; N = 45,1 (2.2) n (%)
same,TEAE Akathisia/Restlessness,[3]; N = 45,1 (2.2) n (%)
same,TEAE Anxiety,[3]; N = 45,1 (2.2) n (%)
same,TEAE Chest pain,[3]; N = 45,1 (2.2) n (%)
same,TEAE Cognitive Disorder,[3]; N = 45,1 (2.2) n (%)
same,TEAE Compulsions,[3]; N = 45,0 n (%)
same,TEAE Constipation,[3]; N = 45,2 (4.4) n (%)
same,TEAE Depression/Agitated Depression,[3]; N = 45,2 (4.4) n (%)
same,TEAE Diarrhea,[3]; N = 45,4 (8.9) n (%)
same,TEAE Dizziness,[3]; N = 45,2 (4.4) n (%)
same,TEAE Drooling,[3]; N = 45,1 (2.2) n (%)
same,TEAE Dry mouth,[3]; N = 45,4 (8.9) n (%)
same,TEAE Dyskinesia,[3]; N = 45,1 (2.2) n (%)
same,TEAE Dyspepsia,[3]; N = 45,1 (2.2) n (%)
same,TEAE Dysphagia,[3]; N = 45,0 n (%)
same,TEAE Fatigue,[3]; N = 45,3 (6.7) n (%)
same,TEAE Flatulence,[3]; N = 45,0 n (%)
same,TEAE Frequent bowel movements,[3]; N = 45,1 (2.2) n (%)
same,TEAE Gait disturbance,[3]; N = 45,1 (2.2) n (%)
same,TEAE Gastrointestinal pain,[3]; N = 45,1 (2.2) n (%)
same,TEAE Hangover,[3]; N = 45,1 (2.2) n (%)
same,TEAE Headache,[3]; N = 45,0 n (%)
same,TEAE Impulsive Behavior,[3]; N = 45,0 n (%)
same,TEAE Insomnia,[3]; N = 45,3 (6.7) n (%)
same,TEAE Irritability,[3]; N = 45,3 (6.7) n (%)
same,TEAE Loss of Consciousness,[3]; N = 45,0 n (%)
same,TEAE Migraine,[3]; N = 45,1 (2.2) n (%)
same,TEAE Nausea,[3]; N = 45,1 (2.2) n (%)
same,TEAE Salivary hypersecretion,[3]; N = 45,0 n (%)
same,TEAE Sleep disorder,[3]; N = 45,0 n (%)
same,TEAE Somnolence,[3]; N = 45,11.1 n (%)
same,TEAE Suicidal Ideation,[3]; N = 45,1 (2.2) n (%)
same,TEAE Syncope,[3]; N = 45,0 n (%)
same,TEAE Vomiting,[3]; N = 45,0 n (%)
same,Any Treatment-Emergent AEs (TEAEs),"[3]; N = 45, listed as DTBZ",27 (60.0) n (%)
same,TEAE Somnolence,"[3]; N = 45, listed as DTBZ",5 (11.1) n (%)
same,"Absolute Change in Total Maximal Chorea Score, Difference in Means (DTBZ − Placebo and 95% CI)",[3]; [5],−2.5
same,"Percentage Change in Total Maximal Chorea Score, Difference in Means (DTBZ − Placebo and 95% CI)",[3]; [5],"−21 (−30.5, −11.1) %"
same,TMC improved,[3]; [5],37%
same,"Total Motor Score change, Difference in Means (DTBZ − Placebo) and 95% CI",[3]; [5],"−4.0 (−6.5, −1.5)"
same,improvement in the TMS compared with placebo,[3]; [5],4.0 units
same,reduction in maximal chorea compared with placebo,[3]; [5],21 percentage points
same,reduction on the TMC score compared with placebo,[3]; [5],2.5 units
same,total maximal dystonia score improvement,[3]; [5],0.9 (SE 0.24) points
same,UHDRS Behavioral Assessment (Part III) mean total behavior score compared with the placebo group,[3]; difference did not achieve statistical significance,improvement in the in the mean total behavior score
same,AEs of parkinsonism or dysphagia,[3]; in vivo,no AEs of parkinsonism or dysphagia were reported
same,balance (Berg Balance Test) at end of treatment,[3]; in vivo,did not worsen balance
same,changes in the parkinsonism subscore (UHDRS motor) vs placebo,[3]; in vivo,no significant difference
same,"hypotension, dizziness, or orthostasis (vital signs)",[3]; in vivo,"no evidence that hypotension, dizziness, or orthostasis was associated"
same,parkinsonism subscore of the UHDRS Motor Assessment (Part I),[3]; in vivo,did not identify evidence of parkinsonism
same,"safety scales (HADS, C-SSRS, UPDRS dysarthria, BARS, ESS)",[3]; in vivo,"did not cause depression, anxiety, suicidality, akathisia, somnolence, or difficulty speaking"
same,"somnolence, drug-placebo difference",[3]; in vivo,6.7%
same,tolerability,[3]; in vivo,generally well tolerated
same,Clinical Global Impression of Change: Treatment Success at the End of Therapy,[3]; [6],42%
same,Patient Global Impression of Change: Treatment Success at the End of Therapy,[3]; [6],51%
same,SF-36 physical functioning mean improvement over placebo,[3]; subjects with more severe chorea at baseline (TMC>12; n=49),7.1 units
